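Grown in 96-well plates, cells were treated for 48 hours with each compound at five concentrations. Insufficient inhibition: endpoint recorded as highest concentration tested. At the GI50, growth is halved.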 Calls of active or inactive are those of the source. No stated cut-off is given here; in the data, active = GI50 up to about 1.1 µM and inactive = higher.
What was measured:
Test in all cases: NCI tumour cell line growth inhibition, 48 h
IGROV-1 = tested on: IGROV-1
NCI-H226 = tested on: NCI-H226
RPMI-8226 = tested on: RPMI-8226
SF-539 = tested on: SF-539
NCI-H522 = tested on: NCI-H522
COLO 205 = tested on: COLO 205
SN12C = tested on: SN12C
HT-29 = tested on: HT-29
HOP-92 = tested on: HOP-92
HCT-116 = tested on: HCT-116
SNB-75 = tested on: SNB-75
UACC-257 = tested on: UACC-257
NCI-H460 = tested on: NCI-H460
NCI/ADR-RES = tested on: NCI/ADR-RES
HOP-62 = tested on: HOP-62
SK-MEL-2 = tested on: SK-MEL-2
K562 = tested on: K562
OVCAR-8 = tested on: OVCAR-8
KM12 = tested on: KM12
OVCAR-3 = tested on: OVCAR-3

Measured: GI50

CCCCCCSc1nc(N)nc2nc[nH]c12
inactive: IGROV-1 30.5 µM | NCI-H226 32.1 µM | RPMI-8226 60.1 µM | SF-539 35.3 µM | NCI-H522 15.7 µM | COLO 205 38.9 µM | SN12C 36.6 µM | HT-29 34.4 µM | HOP-92 28.8 µM | HCT-116 35.2 µM | SNB-75 17 µM | UACC-257 37.7 µM | NCI-H460 39.3 µM | NCI/ADR-RES 37.5 µM | HOP-62 34.5 µM | SK-MEL-2 18.4 µM | K562 32 µM | OVCAR-8 42.5 µM | KM12 55.6 µM | OVCAR-3 40.2 µM

CN1C(=O)CC(=O)N1/C(=C/c1ccccc1)c1ccccc1
inactive: IGROV-1 18.2 µM | NCI-H226 > 100 µM | RPMI-8226 37.1 µM | COLO 205 41 µM | SN12C > 100 µM | HT-29 > 100 µM | HOP-92 75.5 µM | HCT-116 > 100 µM | SNB-75 > 100 µM | UACC-257 > 100 µM | NCI-H460 48 µM | NCI/ADR-RES > 100 µM | HOP-62 > 100 µM | SK-MEL-2 38.5 µM | K562 55.6 µM | OVCAR-8 > 100 µM | KM12 > 100 µM | OVCAR-3 39.3 µM

O=C(O)c1ccc(C(=O)O)c2c(C(=O)O)ccc(C(=O)O)c12
inactive: IGROV-1 > 100 µM | NCI-H226 > 100 µM | RPMI-8226 > 100 µM | SF-539 > 100 µM | NCI-H522 > 100 µM | COLO 205 > 100 µM | SN12C > 100 µM | HT-29 > 100 µM | HOP-92 > 100 µM | HCT-116 > 100 µM | SNB-75 > 100 µM | UACC-257 > 100 µM | NCI-H460 > 100 µM | NCI/ADR-RES > 100 µM | HOP-62 > 100 µM | SK-MEL-2 > 100 µM | K562 > 100 µM | OVCAR-8 > 100 µM | KM12 > 100 µM | OVCAR-3 > 100 µM

COC(=O)C1C(O)C(C)C(O)C(C)(O)/C=C\C=C(C)C(=O)Nc2c(C)c(OC(C)=O)c3c(c2O)C(=O)C(C)=C2OCOC(=C23)C(C)=CC(C)(O)C(O)C(C)C1OC(C)=O (stereo not given)
inactive: IGROV-1 30.1 µM | NCI-H226 63.5 µM | RPMI-8226 33.3 µM | SF-539 41.2 µM | NCI-H522 32.4 µM | COLO 205 18.6 µM | SN12C 24 µM | HT-29 45.4 µM | HOP-92 2.52 µM | HCT-116 21.4 µM | SNB-75 31 µM | UACC-257 26.1 µM | NCI-H460 26.1 µM | NCI/ADR-RES > 100 µM | HOP-62 > 86.3 µM | SK-MEL-2 19.6 µM | K562 37.4 µM | OVCAR-8 49.3 µM | KM12 26.7 µM | OVCAR-3 27.7 µM

CCOC(=O)/C=C/c1c[nH]c(C(=O)OCC)c1
inactive: IGROV-1 > 100 µM | NCI-H226 > 100 µM | RPMI-8226 > 100 µM | SF-539 > 100 µM | NCI-H522 > 90.8 µM | COLO 205 > 100 µM | SN12C > 100 µM | HT-29 > 100 µM | HOP-92 > 100 µM | HCT-116 > 100 µM | SNB-75 > 66.1 µM | UACC-257 > 100 µM | NCI-H460 > 100 µM | NCI/ADR-RES > 100 µM | HOP-62 > 100 µM | SK-MEL-2 > 100 µM | K562 51.5 µM | OVCAR-8 > 100 µM | KM12 > 100 µM | OVCAR-3 > 100 µM

Cc1ccnc2nc(N)ccc12
inactive: IGROV-1 > 100 µM | NCI-H226 > 100 µM | RPMI-8226 > 100 µM | SF-539 > 100 µM | NCI-H522 > 100 µM | COLO 205 > 100 µM | SN12C > 100 µM | HT-29 > 100 µM | HCT-116 > 100 µM | SNB-75 66.7 µM | UACC-257 > 100 µM | NCI-H460 > 100 µM | NCI/ADR-RES > 100 µM | SK-MEL-2 > 100 µM | K562 > 100 µM | OVCAR-8 > 100 µM | KM12 > 100 µM

CCOC(=O)CNC(=O)NC12CC3CC(CC(C3)C1)C2
inactive: IGROV-1 240 µM | NCI-H226 203 µM | RPMI-8226 274 µM | SF-539 203 µM | NCI-H522 142 µM | COLO 205 137 µM | SN12C 219 µM | HT-29 366 µM | HOP-92 22.1 µM | HCT-116 156 µM | SNB-75 110 µM | UACC-257 176 µM | NCI-H460 136 µM | NCI/ADR-RES 305 µM | HOP-62 185 µM | SK-MEL-2 141 µM | K562 226 µM | OVCAR-8 490 µM | KM12 150 µM | OVCAR-3 153 µM

From ChEMBL document CHEMBL1201862, “PubChem BioAssay data set” (2004)
